Assays:
Type in all cases: cell-based, human
[1] = tested on: monocytes; test: aberrant enzyme activities in febrile children, monocytes (Table 7)
[2] = tested on: granulocytes; test: enzyme activity with fluorogenic substrate, normal granulocytes (Table 3A)
[3] = tested on: monocytes; test: enzyme activity with fluorogenic substrate, normal monocytes (Table 3A)
[4] = tested on: granulocytes; test: aberrant enzyme activities in febrile children, granulocytes (Table 7)
[5] = tested on: lymphocytes; test: aberrant enzyme activities in febrile children, lymphocytes (Table 7)
[6] = tested on: lymphocytes; test: enzyme activity with fluorogenic substrate, normal lymphocytes (Table 3A)
[7] = tested on: lymphocytes; test: peptidase activity in leukemia and non-leukemia patients, lymphocytes (Table 6C); parameters: unit not given here
[8] = tested on: metabolically active whole cell; test: substrate panel in normals and HIV + patients, TB infection (Table 4); parameters: unit not given here
Experimental: A panel of assay compounds are assembled consisting of Ala-aminopeptidase and Lys-aminopeptidase, Dipeptidyl peptidase IV (Ala-Ala)2 rhodamine 110 and Cathepsin D to indicate possible TB infection in AIDS related cases.
A panel Of enzymatic substrates is performed consisting of Ala-aminopeptidase and Lys-aminopeptidase, Dipeptidyl peptidase IV (Ala-Ala)2 rhodamine 110 and Cathepsin D to indicate possible TB infection in AIDS related cases.

[9] = tested on: granulocytes; test: peptidase activity in leukemia and non-leukemia patients, granulocytes (Table 6C); parameters: unit not given here

Compound: C[C@@H](O)[C@H](NC(=O)OCc1ccccc1)C(=O)N1CCC[C@H]1C(=O)Nc1ccc2c(c1)Oc1cc(NC(=O)[C@@H]3CCCN3C(=O)[C@@H](NC(=O)OCc3ccccc3)[C@@H](C)O)ccc1C21OC(=O)c2ccccc21 [Z-TP6.5M]
- aberrant enzyme activity, MONOS ([1]; P92 Adenitis): - (>0.25 Decrease over normal range)
- aberrant enzyme activity, MONOS ([1]; P97 Pyelonephritis): .smallcircle.
- aberrant enzyme activity, MONOS ([1]; P103 Viral Syndrome): .smallcircle.
- NORMAL LEUKOCYTE ENZYME ACTIVITY GRANS Mean [2]: 55.07
- NORMAL LEUKOCYTE ENZYME ACTIVITY MONOS Mean [3]: 45.70
- aberrant enzyme activity, GRANS ([4]; P92 Adenitis): - (>0.25 Decrease over normal range)
- aberrant enzyme activity, GRANS ([4]; P97 Pyelonephritis): .smallcircle.
- aberrant enzyme activity, GRANS ([4]; P103 Viral Syndrome): .smallcircle.
- aberrant enzyme activity, LYMPHS ([5]; P92 Adenitis): - (>0.25 Decrease over normal range)
- aberrant enzyme activity, LYMPHS ([5]; P97 Pyelonephritis): .smallcircle.
- aberrant enzyme activity, LYMPHS ([5]; P103 Viral Syndrome): .smallcircle.
- NORMAL LEUKOCYTE ENZYME ACTIVITY LYMPHS Mean [6]: 20.62

Compound: C[C@@H](O)[C@H](NC(=O)OCc1ccccc1)C(=O)N1CCC[C@H]1C(=O)Nc1ccc2c(c1)Oc1cc(NC(=O)[C@@H]3CCCN3C(=O)[C@@H](NC(=O)OCc3ccccc3)[C@@H](C)O)ccc1C21OC(=O)c2ccccc21 [Z-TP 8.7-M]
- aberrant enzyme activity, MONOS ([1]; P92 Adenitis): - (>0.25 Decrease over normal range)
- aberrant enzyme activity, MONOS ([1]; P97 Pyelonephritis): .smallcircle.
- aberrant enzyme activity, MONOS ([1]; P103 Viral Syndrome): .smallcircle.
- NORMAL LEUKOCYTE ENZYME ACTIVITY GRANS Mean [2]: 80.16
- NORMAL LEUKOCYTE ENZYME ACTIVITY MONOS Mean [3]: 71.45
- aberrant enzyme activity, GRANS ([4]; P92 Adenitis): - (>0.25 Decrease over normal range)
- aberrant enzyme activity, GRANS ([4]; P97 Pyelonephritis): .smallcircle.
- aberrant enzyme activity, GRANS ([4]; P103 Viral Syndrome): .smallcircle.
- aberrant enzyme activity, LYMPHS ([5]; P92 Adenitis): - (>0.25 Decrease over normal range)
- aberrant enzyme activity, LYMPHS ([5]; P97 Pyelonephritis): .smallcircle.
- aberrant enzyme activity, LYMPHS ([5]; P103 Viral Syndrome): .smallcircle.
- NORMAL LEUKOCYTE ENZYME ACTIVITY LYMPHS Mean [6]: 30.99

Compound: (Gly)2 Rho 110
- aberrant enzyme activity, MONOS ([1]; P88 Enteritis): .smallcircle.
- aberrant enzyme activity, MONOS ([1]; P89 Viral Stomatitis): .smallcircle.
- aberrant enzyme activity, MONOS ([1]; P92 Adenitis): .smallcircle.
- aberrant enzyme activity, MONOS ([1]; P97 Pyelonephritis): + (>0.25 Increase over normal range)
- aberrant enzyme activity, MONOS ([1]; P103 Viral Syndrome): .smallcircle.
- NORMAL LEUKOCYTE ENZYME ACTIVITY GRANS Mean [2]: 29.48
- NORMAL LEUKOCYTE ENZYME ACTIVITY MONOS Mean [3]: 61.47
- aberrant enzyme activity, GRANS ([4]; P88 Enteritis): .smallcircle.
- aberrant enzyme activity, GRANS ([4]; P89 Viral Stomatitis): .smallcircle.
- aberrant enzyme activity, GRANS ([4]; P92 Adenitis): .smallcircle.
- aberrant enzyme activity, GRANS ([4]; P97 Pyelonephritis): .smallcircle.
- aberrant enzyme activity, GRANS ([4]; P102 UTI): .smallcircle.
- aberrant enzyme activity, GRANS ([4]; P103 Viral Syndrome): .smallcircle.
- aberrant enzyme activity, LYMPHS ([5]; P88 Enteritis): .smallcircle.
- aberrant enzyme activity, LYMPHS ([5]; P89 Viral Stomatitis): - (>0.25 Decrease over normal range)
- aberrant enzyme activity, LYMPHS ([5]; P92 Adenitis): .smallcircle.
- aberrant enzyme activity, LYMPHS ([5]; P97 Pyelonephritis): .smallcircle.
- aberrant enzyme activity, LYMPHS ([5]; P102 UTI): .smallcircle.
- aberrant enzyme activity, LYMPHS ([5]; P103 Viral Syndrome): .smallcircle.
- enzyme activity, Lymphs ([7]; J4 11/21/91 acute leuk.): 14.02
- enzyme activity, Lymphs ([7]; J4 12/2/91 A L): 27.32
- enzyme activity, Lymphs ([7]; J4 12/3/91 acute leuk.): 31.51
- enzyme activity, Lymphs ([7]; J5 11/27/91 A M L): 28.36
- enzyme activity, Lymphs ([7]; J19 11/27/91 C L L): 11.39
- enzyme activity, Lymphs ([7]; J22 12/2/91 A M L): 24.50
- enzyme activity, Lymphs ([7]; J22 12/9/91 A M L): 27.14
- enzyme activity, Lymphs ([7]; N191 normal): 43.57
- enzyme activity, Lymphs ([7]; N192 normal): 37.47
- enzyme activity, Lymphs ([7]; N193 normal): 39.30
- enzyme activity, Lymphs ([7]; N194 normal): 39.76
- enzyme activity, Lymphs ([7]; N195 normal): 48.18
- enzyme activity, Lymphs ([7]; N197 normal): 42.96
- enzyme activity, Lymphs ([7]; N199 normal): 30.68
- enzyme activity, Lymphs ([7]; N200 normal): 42.28
- enzyme activity, Lymphs ([7]; N201 normal): 45.32
- enzyme activity, Lymphs ([7]; N202 normal): 44.55
- enzyme activity, Lymphs ([7]; N206 normal): 55.56
- enzyme activity, Lymphs ([7]; P68 tachycardia): 59.29
- enzyme activity, Lymphs ([7]; P69 pancreatic CA): 67.38
- enzyme activity, Lymphs ([7]; P70 cirrhosis/hemobilia): 54.84
- enzyme activity, Lymphs ([7]; P71 ac. pyelonephritis): 41.93
- NORMAL LEUKOCYTE ENZYME ACTIVITY LYMPHS Mean [6]: 18.18
- MEAN DELTA FL ([8]; HIV + PATIENTS): 62.4
- MEAN DELTA FL ([8]; NORMALS): 101.1
- enzyme activity, Grans ([9]; J4 11/21/91 acute leuk.): 27.79
- enzyme activity, Grans ([9]; J4 12/2/91 A L): 47.74
- enzyme activity, Grans ([9]; J4 12/3/91 acute leuk.): 48.53
- enzyme activity, Grans ([9]; J5 11/27/91 A M L): 56.33
- enzyme activity, Grans ([9]; J19 11/27/91 C L L): 48.80
- enzyme activity, Grans ([9]; J22 12/2/91 A M L): 34.02
- enzyme activity, Grans ([9]; J22 12/9/91 A M L): 38.47
- enzyme activity, Grans ([9]; N191 normal): 73.20
- enzyme activity, Grans ([9]; N192 normal): 48.67
- enzyme activity, Grans ([9]; N193 normal): 63.33
- enzyme activity, Grans ([9]; N194 normal): 60.30
- enzyme activity, Grans ([9]; N195 normal): 79.13
- enzyme activity, Grans ([9]; N197 normal): 76.88
- enzyme activity, Grans ([9]; N199 normal): 45.00
- enzyme activity, Grans ([9]; N200 normal): 59.39
- enzyme activity, Grans ([9]; N201 normal): 75.48
- enzyme activity, Grans ([9]; N202 normal): 66.22
- enzyme activity, Grans ([9]; N206 normal): 91.93
- enzyme activity, Grans ([9]; P68 tachycardia): 100.00
- enzyme activity, Grans ([9]; P69 pancreatic CA): 88.04
- enzyme activity, Grans ([9]; P70 cirrhosis/hemobilia): 88.42
- enzyme activity, Grans ([9]; P71 ac. pyelonephritis): 59.35

From patent US5698411A, “Method for determining activity of enzymes in metabolically active whole cells” (priority 1995, dated 1997)
